Measured values as given in PMC11208997 (RSC Advances, 2024).

Key:
[1] = tested on: four human cancer cell lines (A-549, MCF-7, Panc-1, HT-29); assay: Antiproliferative assay, average over four cancer cell lines; assay type: cell-based; settings: for Fold lower antiproliferative potency (GI50) than 9c: GI50 relative to 9c; for GI50: Homo sapiens, read-out: Antiproliferative activity, Average (GI50)
[2] = tested on: pancreatic cancer (Panc-1) cell line; assay: Antiproliferative assay, Panc-1; assay type: cell-based; settings: Homo sapiens, PANC-1, read-out: Antiproliferative activity IC50 ± SEM, Panc-1
[3] = tested on: lung cancer (A-549) cell line; assay: Antiproliferative assay, A-549; assay type: cell-based; settings: Homo sapiens, A549, read-out: Antiproliferative activity IC50 ± SEM, A-549
colon cancer (HT-29) = assay: Antiproliferative assay, HT-29; assay type: cell-based; settings: Homo sapiens, HT-29, read-out: Antiproliferative activity IC50 ± SEM, HT-29
VEGFR-2 [4] = target: VEGFR-2 (Homo sapiens, UniProt P35968); assay: VEGFR-2 inhibitory assay; assay type: biochemical
BRAF^V600E [5] = target: BRAF^V600E (Mus musculus, UniProt P28028, V585E); assay: BRAF^V600E inhibitory assay; assay type: biochemical
EGFR [6] = target: EGFR (Homo sapiens, UniProt P00533); assay: EGFR-TK inhibitory assay; assay type: biochemical
Cell viability assay = assay type: cell-based; settings: human, MCF-10A mammary gland epithelial normal cells
[7] = tested on: breast cancer (MCF-7) cell line; assay: Antiproliferative assay, MCF-7; assay type: cell-based; settings: Homo sapiens, MCF7, read-out: Antiproliferative activity IC50 ± SEM, MCF-7
EGFR [8] = assay: Western blotting, EGFR level in A549 cells; assay type: cell-based, human; settings: untreated control OD 0.695
VEGFR-2 [9] = assay: Western blotting, VEGFR-2 level in A549 cells; assay type: cell-based, human; settings: untreated control OD 0.662
BRAF^V600E [10] = assay: Western blotting, BRAF^V600E level in A549 cells; assay type: cell-based, human; settings: untreated control OD 0.507

Sequence of VEGFR-2 (Homo sapiens, UniProt P35968) (P35968 20-1356): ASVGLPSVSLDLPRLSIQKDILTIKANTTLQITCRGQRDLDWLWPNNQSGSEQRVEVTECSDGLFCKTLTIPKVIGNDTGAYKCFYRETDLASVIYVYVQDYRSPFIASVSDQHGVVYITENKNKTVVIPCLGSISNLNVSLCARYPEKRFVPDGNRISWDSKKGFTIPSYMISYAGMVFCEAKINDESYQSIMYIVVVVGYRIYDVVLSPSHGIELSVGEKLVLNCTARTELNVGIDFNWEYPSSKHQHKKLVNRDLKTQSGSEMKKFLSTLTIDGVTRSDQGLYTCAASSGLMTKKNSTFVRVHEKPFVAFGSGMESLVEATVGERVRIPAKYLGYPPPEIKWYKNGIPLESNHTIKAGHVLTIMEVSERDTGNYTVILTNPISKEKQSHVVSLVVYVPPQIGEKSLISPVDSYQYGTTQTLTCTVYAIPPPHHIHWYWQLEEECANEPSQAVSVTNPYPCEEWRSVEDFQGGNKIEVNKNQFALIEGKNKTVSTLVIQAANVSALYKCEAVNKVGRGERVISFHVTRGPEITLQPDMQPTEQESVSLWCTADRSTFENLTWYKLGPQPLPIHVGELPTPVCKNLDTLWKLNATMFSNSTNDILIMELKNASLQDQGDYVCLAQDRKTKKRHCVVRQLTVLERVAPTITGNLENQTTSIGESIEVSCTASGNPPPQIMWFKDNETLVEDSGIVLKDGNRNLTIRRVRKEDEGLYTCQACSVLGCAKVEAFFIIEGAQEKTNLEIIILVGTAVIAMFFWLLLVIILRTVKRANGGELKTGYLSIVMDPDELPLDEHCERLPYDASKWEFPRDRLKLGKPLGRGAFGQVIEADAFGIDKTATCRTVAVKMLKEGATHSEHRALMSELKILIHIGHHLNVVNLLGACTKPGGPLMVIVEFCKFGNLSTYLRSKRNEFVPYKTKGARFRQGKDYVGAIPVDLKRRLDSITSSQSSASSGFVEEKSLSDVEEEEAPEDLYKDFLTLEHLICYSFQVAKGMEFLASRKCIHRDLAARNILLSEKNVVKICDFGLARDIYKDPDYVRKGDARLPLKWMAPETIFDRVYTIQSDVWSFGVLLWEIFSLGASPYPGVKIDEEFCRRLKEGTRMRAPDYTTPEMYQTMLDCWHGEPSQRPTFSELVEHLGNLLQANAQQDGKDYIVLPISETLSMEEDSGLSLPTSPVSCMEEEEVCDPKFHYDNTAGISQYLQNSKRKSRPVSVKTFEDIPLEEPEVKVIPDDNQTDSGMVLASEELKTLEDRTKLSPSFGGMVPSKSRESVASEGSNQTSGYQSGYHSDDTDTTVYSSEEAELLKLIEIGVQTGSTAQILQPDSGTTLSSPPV
Sequence of BRAF^V600E (Mus musculus, UniProt P28028, V585E) (P28028 whole entry V585E): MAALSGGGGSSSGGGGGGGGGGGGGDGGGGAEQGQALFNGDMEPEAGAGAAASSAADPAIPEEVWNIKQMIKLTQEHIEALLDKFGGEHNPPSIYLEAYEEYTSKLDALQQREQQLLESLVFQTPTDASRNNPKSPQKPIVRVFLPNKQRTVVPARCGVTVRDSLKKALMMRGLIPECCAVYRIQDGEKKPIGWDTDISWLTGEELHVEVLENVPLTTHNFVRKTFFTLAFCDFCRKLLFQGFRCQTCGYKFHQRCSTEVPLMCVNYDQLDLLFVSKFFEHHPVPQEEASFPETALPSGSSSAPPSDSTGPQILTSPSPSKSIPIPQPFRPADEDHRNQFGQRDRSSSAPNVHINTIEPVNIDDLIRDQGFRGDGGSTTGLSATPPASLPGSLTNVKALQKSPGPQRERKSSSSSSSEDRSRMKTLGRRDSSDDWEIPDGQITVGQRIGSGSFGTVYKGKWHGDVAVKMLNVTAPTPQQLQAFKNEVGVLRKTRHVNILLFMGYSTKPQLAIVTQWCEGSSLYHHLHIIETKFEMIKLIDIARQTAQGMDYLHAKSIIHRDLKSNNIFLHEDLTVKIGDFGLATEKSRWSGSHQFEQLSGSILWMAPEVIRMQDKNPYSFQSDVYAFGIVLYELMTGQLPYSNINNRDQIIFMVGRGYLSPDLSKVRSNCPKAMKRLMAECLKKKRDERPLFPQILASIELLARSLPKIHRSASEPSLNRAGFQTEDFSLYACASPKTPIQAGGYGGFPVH
Sequence of EGFR (Homo sapiens, UniProt P00533) (P00533 669-1210): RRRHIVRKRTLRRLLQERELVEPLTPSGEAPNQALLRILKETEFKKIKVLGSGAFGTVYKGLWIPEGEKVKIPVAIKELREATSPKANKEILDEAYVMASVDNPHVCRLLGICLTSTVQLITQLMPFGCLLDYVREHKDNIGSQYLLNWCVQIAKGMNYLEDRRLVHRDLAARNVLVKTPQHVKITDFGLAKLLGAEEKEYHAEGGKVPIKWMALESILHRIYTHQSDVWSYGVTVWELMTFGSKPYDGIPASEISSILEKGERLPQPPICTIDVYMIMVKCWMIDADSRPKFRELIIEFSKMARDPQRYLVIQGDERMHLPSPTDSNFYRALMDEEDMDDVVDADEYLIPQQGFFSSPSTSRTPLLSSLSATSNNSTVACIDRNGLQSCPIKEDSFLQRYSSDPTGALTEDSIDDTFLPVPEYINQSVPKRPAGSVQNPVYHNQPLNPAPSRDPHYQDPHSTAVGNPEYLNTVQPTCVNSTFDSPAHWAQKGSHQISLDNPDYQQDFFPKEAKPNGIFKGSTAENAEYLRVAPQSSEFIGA

Row | Structure (SMILES) | Fold lower antiproliferative potency (GI50) than 9c [1] | GI50 [1] | IC50 [2] | IC50 [3] | IC50 (colon cancer (HT-29)) | IC50 (VEGFR-2 [4]) | IC50 (BRAF^V600E [5]) | IC50 (EGFR [6]) | viability at 96 h, 50 µM (Cell viability assay) | IC50 [7] | Western blotting OD, EGFR (EGFR [8]) | Western blotting OD, VEGFR-2 (VEGFR-2 [9]) | Western blotting OD, BRAF^V600E (BRAF^V600E [10])
1 | Br.c1ccc(NC2=NN=C(c3ccccc3)CS2)cc1 [Compound 9a, 5-Phenyl-2-(phenylamino)-6H-1,3,4-thiadiazin-3-ium bromide] | 1.2 fold | 43 nM | 44 ± 4 nM | 43 ± 4 nM | 44 ± 4 nM | 2.8 ± 0.02 nM | 83 ± 6 nM | 92 ± 7 nM | 91% | 40 ± 4 nM |  |  | 
2 | Br.C=CC/N=C1/NN=C(c2ccccc2)CS1 [Compound 9b, (Z)-N-(5-Phenyl-3,6-dihydro-2H-1,3,4-thiadiazin-2-ylidene)prop-2-en-1-aminium bromide] | 1.5 fold | 56 nM | 58 ± 5 nM | 56 ± 5 nM | 58 ± 5 nM |  |  |  | 90% | 52 ± 5 nM |  |  | 
3 | Br.c1ccc(C2=NN/C(=N/C3CCCCC3)SC2)cc1 [Compound 9c, (Z)-N-(5-Phenyl-3,6-dihydro-2H-1,3,4-thiadiazin-2-ylidene) cyclohexanaminium bromide] |  | 38 nM | 38 ± 3 nM | 37 ± 3 nM | 40 ± 4 nM | 2.2 ± 0.02 nM | 74 ± 5 nM | 86 ± 5 nM | 92% | 35 ± 3 nM | 0.288 | 0.346 | 0.219
4 | Brc1ccc(C2=NN=C(Nc3ccccc3)SC2)cc1 [Compound 9d, 5-(4-Bromophenyl)-2-(phenylamino)-6H-1,3,4-thiadiazin-3-ium bromide] |  | 47 nM | 48 ± 4 nM | 48 ± 4 nM | 47 ± 4 nM | 3.25 ± 0.03 nM | 88 ± 6 nM | 96 ± 7 nM | 89% | 44 ± 4 nM |  |  | 
5 | C/N=C1/NN=C(c2ccc(Br)cc2)CS1 [Compound 9e, (Z)-N-(5-(4-Bromophenyl)-3,6-dihydro-2H-1,3,4-thiadiazin-2-ylidene) methanaminium bromide] |  | 62 nM | 64 ± 6 nM | 62 ± 6 nM | 64 ± 6 nM |  |  |  | 92% | 58 ± 5 nM |  |  | 
6 | CC/N=C1/NN=C(c2ccc(Br)cc2)CS1 [Compound 9f, (Z)-N-(5-(4-Bromophenyl)-3,6-dihydro-2H-1,3,4-thiadiazin-2-ylidene)ethan aminium bromide] |  | 66 nM | 66 ± 6 nM | 65 ± 6 nM | 66 ± 6 nM |  |  |  | 89% | 64 ± 6 nM |  |  | 
7 | Brc1ccc(C2=NN/C(=N/C3CCCCC3)SC2)cc1 [Compound 9g, (Z)-N-(5-(4-Bromophenyl)-3,6-dihydro-2H-1,3,4-thiadiazin-2-ylidene) cyclohexanaminium bromide] |  | 54 nM | 56 ± 5 nM | 54 ± 5 nM | 56 ± 5 nM |  |  |  | 88% | 51 ± 5 nM |  |  | 
8 | C#Cc1cccc(Nc2ncnc3cc(OCCOC)c(OCCOC)cc23)c1 [Erlotinib, reference compound] |  |  | 30 ± 3 nM | 30 ± 3 nM | 30 ± 3 nM |  |  |  |  | 40 ± 3 nM |  |  | 
